US12581252B2, “Substituted pyrrolo[3,4-b]pyridines as PI3K-α inhibitors” (Relay Therapeutics, Inc., priority 2020, dated 2026)

Biological target: H1047R PIK3CA enzyme (Homo sapiens, UniProt P42336, H1047R)
Assay: ADP-Glo Biochemical PIK3CA Kinase Assay

H1047R PIK3CA enzyme, sequence (P42336 whole entry H1047R): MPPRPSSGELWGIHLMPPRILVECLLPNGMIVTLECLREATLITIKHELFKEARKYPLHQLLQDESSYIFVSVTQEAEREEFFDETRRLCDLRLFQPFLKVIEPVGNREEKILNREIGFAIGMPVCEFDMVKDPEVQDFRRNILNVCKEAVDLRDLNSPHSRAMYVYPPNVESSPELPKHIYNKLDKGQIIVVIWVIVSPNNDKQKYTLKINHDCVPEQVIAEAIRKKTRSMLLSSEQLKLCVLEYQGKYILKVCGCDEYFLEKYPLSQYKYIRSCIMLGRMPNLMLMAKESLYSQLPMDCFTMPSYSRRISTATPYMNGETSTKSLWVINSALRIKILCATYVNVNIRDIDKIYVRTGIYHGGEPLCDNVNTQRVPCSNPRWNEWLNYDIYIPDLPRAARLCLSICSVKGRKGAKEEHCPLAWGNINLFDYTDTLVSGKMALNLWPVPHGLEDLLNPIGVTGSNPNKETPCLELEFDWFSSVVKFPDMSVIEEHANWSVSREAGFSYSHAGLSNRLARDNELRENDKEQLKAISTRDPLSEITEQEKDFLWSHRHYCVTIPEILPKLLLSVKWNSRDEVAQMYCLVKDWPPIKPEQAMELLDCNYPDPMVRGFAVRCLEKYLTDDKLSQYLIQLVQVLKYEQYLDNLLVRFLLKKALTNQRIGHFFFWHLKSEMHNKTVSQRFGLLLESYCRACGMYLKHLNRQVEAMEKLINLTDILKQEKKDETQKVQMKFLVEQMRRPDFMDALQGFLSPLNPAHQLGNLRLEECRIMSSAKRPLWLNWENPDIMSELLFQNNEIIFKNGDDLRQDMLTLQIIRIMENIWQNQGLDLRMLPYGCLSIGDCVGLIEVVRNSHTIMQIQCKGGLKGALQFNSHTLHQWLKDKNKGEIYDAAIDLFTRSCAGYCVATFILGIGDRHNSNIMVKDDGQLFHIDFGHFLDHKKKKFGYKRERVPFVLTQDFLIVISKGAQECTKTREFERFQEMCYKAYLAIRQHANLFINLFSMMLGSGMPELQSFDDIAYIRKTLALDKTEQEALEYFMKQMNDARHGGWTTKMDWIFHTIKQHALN
H1047R PIK3CA enzyme, sequence (P27986 whole entry partner): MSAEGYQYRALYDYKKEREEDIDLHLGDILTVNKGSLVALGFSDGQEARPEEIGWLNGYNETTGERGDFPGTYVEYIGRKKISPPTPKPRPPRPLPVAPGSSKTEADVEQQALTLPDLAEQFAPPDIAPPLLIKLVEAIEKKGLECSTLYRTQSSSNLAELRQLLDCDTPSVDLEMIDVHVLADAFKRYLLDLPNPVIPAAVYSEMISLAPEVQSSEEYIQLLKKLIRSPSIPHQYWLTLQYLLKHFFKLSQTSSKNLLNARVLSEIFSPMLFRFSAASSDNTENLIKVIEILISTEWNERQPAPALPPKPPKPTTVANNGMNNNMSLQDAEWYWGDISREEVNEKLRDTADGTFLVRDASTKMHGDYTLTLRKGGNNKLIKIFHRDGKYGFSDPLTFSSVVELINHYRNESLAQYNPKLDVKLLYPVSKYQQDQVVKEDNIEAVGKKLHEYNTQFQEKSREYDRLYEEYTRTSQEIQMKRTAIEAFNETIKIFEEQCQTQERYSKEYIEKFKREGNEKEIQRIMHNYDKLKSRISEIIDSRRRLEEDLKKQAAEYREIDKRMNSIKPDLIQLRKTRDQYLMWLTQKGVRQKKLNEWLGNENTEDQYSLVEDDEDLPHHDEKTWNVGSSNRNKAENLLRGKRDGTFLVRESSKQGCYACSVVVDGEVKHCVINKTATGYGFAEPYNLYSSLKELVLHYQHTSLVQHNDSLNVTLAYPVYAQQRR

IC50	SMILES
10000 to 100000 nM	O=C1NC(c2cc(F)ccc2Cl)c2c(NC(=O)N3CCCCc4ccccc43)cccc21 (stereo not shown) [Compound I-2306]
10000 to 100000 nM	O=C1NC(c2cc(F)ccc2Cl)c2c(NC(=O)C3CCc4ccccc4C3)cccc21 (mixture of isomers) [Compound I-2283]
≤ 100 nM	O=C(Nc1cc(-c2cc3ncnn3cc2F)cc2c1C(c1cc(F)ccc1Cl)NC2=O)c1cc(F)cc(C(F)(F)F)c1 (stereo not shown) [Compound I-1828]
≤ 100 nM	N#Cc1cnc2ncc(-c3cc(NC(=O)c4cc(F)cc(C(F)(F)F)c4)c4c(c3)C(=O)N[C@H]4c3cc(F)ccc3Cl)cn12 [Compound I-1859]
1000 to 10000 nM	O=C(Nc1cccc2c1C(c1cc(F)ccc1Cl)NC2=O)Nc1n[nH]c2ccccc12 (stereo not shown) [Compound I-2382]
1000 to 10000 nM	O=C1NC(c2cc(F)ccc2Cl)c2c1cc(-c1ccc3ncnn3c1)cc2-c1ccc2ccccc2c1 (stereo not shown) [Compound I-1729]
1000 to 10000 nM	O=C(Nc1cccc2c1C(C1CCCCN1)NC2=O)c1cc(F)cc(C(F)(F)F)c1 (stereo not shown) [Compound I-1675]
≤ 100 nM	O=C(Nc1cc(-c2cnn(S(=O)(=O)C(F)F)c2)cc2c1C(c1cc(F)ccc1Cl)NC2=O)c1cc(F)cc(C(F)(F)F)c1 (stereo not shown) [Compound I-2055]
1000 to 10000 nM	O=C1N[C@H](c2cc(F)ccc2Cl)c2c(NC(=O)N3C[C@@](O)(C(F)(F)F)c4cc(F)ccc43)ccc(-n3ccnn3)c21 (single isomer, unassigned) [Compound I-2524]
≤ 100 nM	O=C(Nc1cc(-c2ccn3ncnc3c2F)cc2c1[C@H](c1cc(F)ccc1Cl)NC2=O)c1cc(F)cc(C(F)(F)F)c1 [Compound I-1765]
1000 to 10000 nM	O=C1N[C@H](c2cc(F)ccc2Cl)c2c(NC(=O)N3C[C@](O)(C(F)(F)F)c4cc(F)ccc43)cc(N3CCOC3=O)cc21 (single isomer, unassigned) [Compound I-2674]
1000 to 10000 nM	O=C1C[C@@H](c2cc(NC(=O)c3cc(F)cc(C(F)(F)F)c3)c3c(c2)C(=O)N[C@@H]3c2cc(F)ccc2Cl)CN1 (single isomer, unassigned) [Compound I-1712]
≤ 100 nM	Nc1nc2ccc(-c3cc(NC(=O)c4cc(F)cc(C(F)(F)F)c4)c4c(c3)C(=O)NC4c3cc(F)ccc3Cl)cn2n1 (stereo not shown) [Compound I-1368]
≤ 100 nM	C=CCCNC(=O)c1cc(NC(=O)c2cc(F)cc(C(F)(F)F)c2)c2c(c1)C(=O)NC2c1cc(F)ccc1Cl (stereo not shown) [Compound I-1422]
10000 to 100000 nM	O=C(Nc1cccc2c1[C@H](C1CCC(F)(F)CC1)NC2=O)c1cc(F)cc(C(F)(F)F)c1 [Compound I-2073]
10000 to 100000 nM	O=C(Nc1cccc2c1C(c1cc(F)ccc1Cl)NC2=O)c1csc2c1CCNC2 (stereo not shown) [Compound I-2304]
≤ 100 nM	CC(C)(C#N)n1cc(-c2cc(NC(=O)c3cc(F)cc(C(F)(F)F)c3)c3c(c2)C(=O)NC3c2cc(F)ccc2Cl)cn1 (stereo not shown) [Compound I-1618]
1000 to 10000 nM	O=C(Nc1cc(-c2ccc3nnnn3c2)cc2c1[C@@H](c1cc(F)ccc1Cl)NC2=O)c1cc(F)cc(C(F)(F)F)c1 [Compound I-1452]

IC50	SMILES
1000 to 10000 nM	N#Cc1cc(NC(=O)N2C[C@](O)(C(F)(F)F)c3cc(F)ccc32)c2c(c1)C(=O)N[C@H]2c1cc(F)ccc1Cl (single isomer, unassigned) [Compound I-2561]
10000 to 100000 nM	O=C1NC(c2cc(F)ccc2Cl)c2c1cc(-c1ccc3ncnn3c1)cc2N1CCOCC1 (stereo not shown) [Compound I-1911]
1000 to 10000 nM	CNc1cc(NC(=O)N2C[C@](O)(C(F)(F)F)c3cc(F)ccc32)c2c(c1)C(=O)N[C@H]2c1cc(F)ccc1Cl (single isomer, unassigned) [Compound I-2643]
≤ 100 nM	O=C(Nc1cc(CC2(CO)COC2)cc2c1C(c1cc(F)ccc1Cl)NC2=O)c1cc(F)cc(C(F)(F)F)c1 (stereo not shown) [Compound I-1339]
10000 to 100000 nM	O=C1N[C@@H](c2cc(F)ccc2Cl)c2c(NC(=O)[C@H]3CCCNC3)cc(-c3ccc4ncnn4c3)cc21 (racemic) [Compound I-1847]
1000 to 10000 nM	O=C1N[C@H](c2cc(F)ccc2Cl)c2c(NC(=O)N3CC4(CC4)c4cc(F)ccc43)cc(Br)cc21 (stereo in doubt) [Compound I-1510]
10000 to 100000 nM	O=C1N[C@H](c2cc(F)ccc2Cl)c2c(NC(=O)N3C[C@H](O)c4ccc(F)cc43)cccc21 (stereo in doubt) [Compound I-2174]
≤ 100 nM	O=C(Nc1cc(Oc2ncncc2F)cc2c1C(c1cc(F)ccc1Cl)NC2=O)c1cc(F)cc(C(F)(F)F)c1 (stereo not shown) [Compound I-1246]
100 to 500 nM	CNc1cc(NC(=O)N2C[C@](O)(C(F)(F)F)c3cc(F)ccc32)c2c(n1)C(=O)N[C@H]2c1cc(F)ccc1Cl (single isomer, unassigned) [Compound I-2647]
≤ 100 nM	CN1CC(c2cc(NC(=O)c3cc(F)cc(C(F)(F)F)c3)c3c(c2)C(=O)NC3c2cc(F)ccc2Cl)NCC1=O (stereo not shown) [Compound I-1277]
10000 to 100000 nM	O=C(Nc1cccc2c1[C@H]([C@H]1CCCCCN1)NC2=O)c1cc(F)cc(C(F)(F)F)c1 (racemic) [Compound I-2318]
10000 to 100000 nM	O=C1NC(c2cc(F)ccc2Cl)c2c(Nc3nnc4n3CCCC4)cc(-c3ccc4ncnn4c3)cc21 (stereo not shown) [Compound I-2059]
10000 to 100000 nM	O=C1NC(c2cc(F)ccc2Cl)c2c(NC(=O)C3(c4cc(F)ccc4F)CCCC3)cc(Br)cc21 (stereo not shown) [Compound I-1819]
1000 to 10000 nM	O=C(Nc1cc(Br)cc2c1C(c1cc(F)ccc1Cl)NC2=O)c1csc(Cl)c1Cl (stereo not shown) [Compound I-1417]
1000 to 10000 nM	O=C1N[C@H](c2cc(F)ccc2Cl)c2c(NC(=O)N3C[C@](O)(C(F)(F)F)c4ccccc43)cc(Cl)cc21 (single isomer, unassigned) [Compound I-2508]
≤ 100 nM	Nc1cn2cc(-c3cc(NC(=O)c4cc(F)cc(C(F)(F)F)c4)c4c(c3)C(=O)NC4c3cc(F)ccc3Cl)ccc2n1 (stereo not shown) [Compound I-1411]
100 to 500 nM	O=C(O)Cc1ccccc1-c1cc(NC(=O)c2cc(F)cc(C(F)(F)F)c2)c2c(c1)C(=O)NC2c1cc(F)ccc1Cl (stereo not shown) [Compound I-1265]

Second part, the compound before the results:

SMILES	IC50
N#Cc1cnccc1-c1cc(NC(=O)c2cc(F)cc(Cl)c2)c2c(n1)C(=O)NC2c1cc(F)ccc1Cl (stereo not shown) [Compound I-506]	≤ 100 nM
O=C(Nc1cc(C2CCO2)cc2c1C(c1cc(F)ccc1Cl)NC2=O)c1cc(F)cc(C(F)(F)F)c1 (racemic) [Compound I-662]	100 to 500 nM
Cc1ccccc1C1NC(=O)c2nccc(NC(=O)c3cc(F)cc(C(F)(F)F)c3)c21 (stereo not shown) [Compound I-142]	100 to 500 nM
N#Cc1cc(NC(=O)c2cc(F)cc(Cl)c2)c2c(c1)C(=O)NC2c1cc(F)ccc1Cl (stereo not shown) [Compound I-531]	≤ 100 nM
Cc1ccccc1C1NC(=O)c2cccc(NC(=O)c3coc4cc(F)ccc34)c21 (stereo not shown) [Compound I-20]	500 to 1000 nM
NCc1ncc(NC(=O)c2cc(F)cc(C(F)(F)F)c2)c2c1C(=O)NC2c1cc(F)ccc1Cl (stereo not shown) [Compound I-480]	500 to 1000 nM
Cc1ccccc1C1NC(=O)c2cccc(NC(=O)c3nn(C)c4ccccc34)c21 (stereo not shown) [Compound I-17]	10000 to 100000 nM
O=C1NCc2c(NC(=O)c3coc4ccc(Cl)cc34)cccc21 [Compound I-402]	10000 to 100000 nM
O=C1NC(c2cc(F)ccc2Cl)c2c(NC(=O)N3CCCCC3c3ccccc3)cc(Br)cc21 (stereo not shown) [Compound I-772]	1000 to 10000 nM
Cc1ccccc1[C@H]1NC(=O)c2nccc(NC(=O)N3CCc4ccccc43)c21 [Compound I-228]	10000 to 100000 nM
O=C(Nc1cc(C(O)C(F)(F)F)cc2c1C(c1cc(F)ccc1Cl)NC2=O)c1cc(F)cc(C(F)(F)F)c1 (stereo not shown) [Compound I-270, N-(3-(2-chloro-5-fluorophenyl)-1-oxo-6-(2,2,2-trifluoro-1-hydroxyethyl)isoindolin-4-yl)-3-fluoro-5-(trifluoromethyl)benzamide]	≤ 100 nM
CP(C)(=O)c1cc(NC(=O)c2cc(F)cc(C(F)(F)F)c2)c2c(c1)C(=O)NC2c1cc(F)ccc1Cl (stereo not shown) [Compound I-395]	≤ 100 nM
CC1(O)CN(c2cc(NC(=O)c3cc(F)cc(C(F)(F)F)c3)c3c(n2)C(=O)NC3c2cc(F)ccc2Cl)C1 (stereo not shown) [Compound I-322]	100 to 500 nM
CC1(n2[nH]c(=O)c3cccc(NC(=O)c4cc(F)cc(C(F)(F)F)c4)c32)CCCCC1 [Compound I-857]	1000 to 10000 nM
O=C1NC(c2cc(F)ccc2Cl)c2c(Nc3nncc4ccccc34)cc(Br)cc21 (stereo not shown) [Compound I-760]	10000 to 100000 nM
Cc1ncc(-c2cc(NC(=O)c3cc(F)cc(C(F)(F)F)c3)c3c(n2)C(=O)N[C@H]3c2cc(F)ccc2Cl)cn1 [Compound I-653]	≤ 100 nM
O=C(Nc1cc(Oc2ccncn2)cc2c1C(c1cc(F)ccc1Cl)NC2=O)c1cc(F)cc(C(F)(F)F)c1 (stereo not shown) [Compound I-1052]	100 to 500 nM
Cc1ncc(-c2cc(NC(=O)c3cc(F)cc(C(F)(F)F)c3)c3c(n2)C(=O)NC3c2cc(F)ccc2Cl)s1 (stereo not shown) [Compound I-546]	≤ 100 nM
O=C1NC(c2cc(F)ccc2Cl)c2c(NC(=O)c3cc(F)cc4cc[nH]c34)cccc21 (stereo not shown) [Compound I-646]	≤ 100 nM
NC(=O)c1cnccc1-c1cc(NC(=O)c2cc(F)cc(Cl)c2)c2c(n1)C(=O)NC2c1cc(F)ccc1Cl (stereo not shown) [Compound I-507]	1000 to 10000 nM
Cn1nccc1Nc1cc(NC(=O)c2cc(F)cc(C(F)(F)F)c2)c2c(c1)C(=O)N[C@H]2c1cc(F)ccc1Cl [Compound I-1144]	≤ 100 nM
O=C(Cc1c[nH]c2ccccc12)Nc1cc(Br)cc2c1C(c1cc(F)ccc1Cl)NC2=O (stereo not shown) [Compound I-953]	10000 to 100000 nM
O=C1NC(c2cc(F)ccc2Cl)c2c(NC(=O)c3nccc4ccccc34)cc(Br)cc21 (stereo not shown) [Compound I-638]	10000 to 100000 nM
Cc1ccccc1C1NC(=O)c2cc(C3(O)CCC3)cc(NC(=O)c3nsc4ccccc34)c21 (stereo not shown) [Compound I-419]	≤ 100 nM
Cc1ccccc1C1NC(=O)c2c(CNC(=O)C(F)(F)F)ccc(NC(=O)c3csc4ccccc34)c21 (stereo not shown) [Compound I-223]	100 to 500 nM
Cc1ccccc1C1NC(=O)c2cccc(NC(=O)c3nsc4ccc(-c5cnn(C)c5)cc34)c21 (stereo not shown) [Compound I-445]	1000 to 10000 nM
O=C(Nc1cc(Br)cc2c1C(c1cc(F)ccc1Cl)NC2=O)c1cc(F)cc(F)c1 (stereo not shown) [Compound I-468]	100 to 500 nM
Cc1ccccc1[C@H]1NC(=O)c2cc(CO)cc(NC(=O)c3nsc4ccccc34)c21 [Compound I-307]	1000 to 10000 nM
COCc1cc(NC(=O)c2cc(F)cc(C(F)(F)F)c2)c2c(c1)C(=O)NC2c1cc(F)ccc1Cl (stereo not shown) [Compound I-611]	≤ 100 nM
